# Assay results reported in patent US6890906B2, “Method for controlling angiogenesis in animals” (Glycogenesys, Inc., priority 2001, dated 2005).
# Where “and” joins values, the source holds several entries; their conditions need not be identical. Identical values can stand only once. Like-named read-outs stand apart in the source and are kept apart here.
# Key:
# [1] = test system: human umbilical vein endothelial cells (HUVEC); conditions: for AVERAGE cell count: average of runs; for Cell count (cells that migrated through the membrane): single runs, 4 hours, 37° C.
# Description: In a first portion of the experimental series, the effect of the chemoattractant vascular endothelial growth factor (VEGF) on human umbilical vein endothelial cells (HUVEC) was quantified. The experiment was carried out in a transwell plate, and in preparation therefor, HUVEC cells were grown to approximately 80% confluency. The cells were suspended in basal media and placed in a transwell plate on fibronectin coated membrane inserts at 50,000 cells per insert. Varying concentrations of VEGF were added to the bottom chamber of the transwell plate, and the plates incubated for 4 hours at 37° C. with a 5% CO2 atmosphere. Following incubation, the membranes were fixed and stained. Nonmigrated cells were removed by mechanical abrasion and cells that migrated through the membrane were counted. […] Three runs were made.
# [2] = test system: human umbilical vein endothelial cells (HUVEC); assay: Inhibition of VEGF-induced HUVEC cell migration by modified pectin in transwell plate; type: cell-based; conditions: VEGF 30 ng/ml Only (positive control, no GCS-100)
# Description: Following incubation, the membranes were fixed and stained. […] Three runs were made.
# The material comprised a modified pectin which is commercially available from GlycoGenesys, Inc. of Boston, Mass., under the designation GCS-100. In this experimental series, HUVEC cells were incubated in a transwell plate with VEGF, and varying concentrations of the therapeutic material, under conditions as described hereinabove. The concentration of VEGF was 30 ng/ml. In one group of experiments, cells were incubated with VEGF in the absence of the carbohydrate material, and these experiments served as a positive control. In another group of experiments, cells were incubated with growth medium and no VEGF or therapeutic carbohydrate, and this group served as a negative control. In the remaining experiments, concentrations of the GCS-100 ranging from 0.001% to 0.1% were employed.
substance,measurement,setting,value
vascular endothelial growth factor [VEGF],AVERAGE cell count,[1]; 1 ng/ml VEGF,734
same,Cell count (cells that migrated through the membrane),[1]; 1 ng/ml VEGF,607 and 766 and 830
same,AVERAGE cell count,[1]; 3 ng/ml VEGF,1043
same,Cell count (cells that migrated through the membrane),[1]; 3 ng/ml VEGF,950 and 1136
same,AVERAGE cell count,[1]; 10 ng/ml VEGF,1218
same,Cell count (cells that migrated through the membrane),[1]; 10 ng/ml VEGF,1144 and 938 and 1573
same,AVERAGE cell count,[1]; 30 ng/ml VEGF,1162
same,Cell count (cells that migrated through the membrane),[1]; 30 ng/ml VEGF,898 and 1448 and 1140
same,AVERAGE cell count,[1]; 100 ng/ml VEGF,1210
same,Cell count (cells that migrated through the membrane),[1]; 100 ng/ml VEGF,1650 and 901 and 1078
same,chemotactic effect,[1]; VEGF concentrations of 10-30 ng/ml,strong chemotactic effect
same,AVERAGE cell count,[2]; average,1244
same,Cell count (migrated cells),[2]; single runs,1322 and 1167
